The results in this text go back to ChEMBL document CHEMBL1201862, “PubChem BioAssay data set” (2004).

Assay [1] can be described thus: A High Throughput Confirmatory Assay used to Identify Novel Compounds that Inhibit Mycobacterium Tuberculosis in the absence of Glycerol. It is filed as functional.
In assay [2] the target is T1, Eukaryotic translation initiation factor 2-alpha kinase 3 (Homo sapiens, UniProt Q9NZJ5).
T1 sequence (Q9NZJ5 whole entry): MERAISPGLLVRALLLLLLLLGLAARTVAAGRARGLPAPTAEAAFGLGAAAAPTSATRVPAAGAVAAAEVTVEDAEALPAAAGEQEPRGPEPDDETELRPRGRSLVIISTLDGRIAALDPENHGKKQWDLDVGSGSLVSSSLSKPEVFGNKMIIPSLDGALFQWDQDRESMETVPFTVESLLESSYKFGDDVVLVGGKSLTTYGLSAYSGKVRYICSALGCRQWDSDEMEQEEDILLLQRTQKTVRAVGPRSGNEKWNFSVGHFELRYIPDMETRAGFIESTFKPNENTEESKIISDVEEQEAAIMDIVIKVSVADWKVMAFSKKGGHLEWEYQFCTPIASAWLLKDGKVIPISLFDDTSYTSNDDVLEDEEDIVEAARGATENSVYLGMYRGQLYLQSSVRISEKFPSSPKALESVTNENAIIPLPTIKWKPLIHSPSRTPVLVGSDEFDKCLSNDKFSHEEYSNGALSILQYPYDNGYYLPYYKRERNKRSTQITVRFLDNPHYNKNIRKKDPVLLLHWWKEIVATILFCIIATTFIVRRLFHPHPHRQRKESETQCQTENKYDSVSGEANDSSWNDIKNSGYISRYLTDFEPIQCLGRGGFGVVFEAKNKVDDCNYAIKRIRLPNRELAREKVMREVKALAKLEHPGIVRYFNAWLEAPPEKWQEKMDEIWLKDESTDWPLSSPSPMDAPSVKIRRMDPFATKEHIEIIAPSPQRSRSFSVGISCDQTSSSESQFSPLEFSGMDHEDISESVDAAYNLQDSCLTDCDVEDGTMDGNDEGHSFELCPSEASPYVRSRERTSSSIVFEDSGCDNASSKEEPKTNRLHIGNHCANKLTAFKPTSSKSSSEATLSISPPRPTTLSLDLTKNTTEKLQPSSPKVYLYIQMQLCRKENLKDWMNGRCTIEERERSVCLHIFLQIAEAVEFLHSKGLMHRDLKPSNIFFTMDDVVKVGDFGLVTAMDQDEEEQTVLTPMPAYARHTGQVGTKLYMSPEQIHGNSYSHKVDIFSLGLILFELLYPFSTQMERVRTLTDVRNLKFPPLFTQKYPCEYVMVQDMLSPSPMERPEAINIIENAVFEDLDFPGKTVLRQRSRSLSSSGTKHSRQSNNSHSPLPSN
Nature of the assay: Dose response cell-based high-throughput screening assay to measure PERK inhibition. [Related pubchem assays: 1416 ]. The format is functional.

Assay [3] deals with T1, Eukaryotic translation initiation factor 2-alpha kinase 3. Nature of the assay: Counterscreen assay for PERK inhibitors: Dose response cell-based high throughput screening assay to measure inhibition of PERK at 6 hours. [Related pubchem assays: 1522, 1416 ]. The format is functional.
Assay [4] can be described thus: Trypanosoma cruzi growth suppression in host cells – NIH3T3 host cells, beta-gal luminescence, confirmation (AID 2044).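 Note: intracellular parasites grown in NIH/3T3 mouse fibroblasts as host cells; luminescent beta-galactosidase reporter signal from transgenic T. cruzi replicating inside host cells; inhibitors lower the luminescence signal.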 The format is functional, cell-based.
Assay [5] can be described thus: NIH3T3 cell viability loss – ATP luminescence, mouse fibroblasts, counter-screen, dose response (AID 2010).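 Note: cells exposed to compound for about 90 hours before reading.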 The format is functional, cell-based.
The test system of assay [6] is HeLa. Nature of the assay: viability loss in HeLa cells – cell-based, 24 h, cherry-picked samples, cytotoxicity control, dose response (AID 504726).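 Note: potency for cytotoxicity as loss of luminescence signal.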 It is filed as functional. Particulars: Homo sapiens.
Assay [7] in a line: A Cell Based Secondary Assay To Explore Cytotoxicity of Compounds that Sensitize Mycobacterium Tuberculosis to Beta-Lactam Antibiotics. The format is functional.
Assay [8] is described as follows: luciferase reporter signal suppression in cells – H4 neuroglioma cells, luminescence, dose response (AID 1990). It is filed as functional, cell-based.
A short description of assay [9]: luciferase reporter signal reduction – luminescence, H4-C neuroglioblastoma cells, dose response (AID 2458).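 Note: H4 neuroglioblastoma cells stably carrying a luciferase reporter gene fusion.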 The format is functional, cell-based.
Assay [10] has as its target Peroxisome proliferator-activated receptor gamma/Nuclear receptor coactivator 1 (Homo sapiens, UniProt P37231). Nature of the assay: TR-FRET dose response biochemical High Throughput Screening assay for agonists of the steroid receptor coactivator 1 (SRC-1) recruitment by the peroxisome proliferator-activated receptor gamma (PPAR gamma): non-selective agonists. [Related pubchem assays (depositor defined):AID1300, AID1808, AID504735, AID631]. The format is protein assay.

The nature of assay [11]: cells. It is filed as functional, cell-based.
Assay [12] is described as follows: Luminescence Cell-Based Dose Response HTS to Identify Inhibitors of 5'UTR Stem-Loop Driven Prion Protein mRNA Translation in H4 Neuroglioblastoma Cells. [Related pubchem assays: 1827 (Project Summary), 1813 (Primary HTS)]. It is filed as functional.
The target in assay [13] is Peroxisome proliferator-activated receptor gamma/Nuclear receptor coactivator 3 (Homo sapiens, UniProt P37231). Nature of the assay: TR-FRET dose response biochemical High Throughput Screening assay for agonists of the steroid receptor coactivator 3 (SRC-3) recruitment by the peroxisome proliferator-activated receptor gamma (PPAR gamma): non-selective agonists. [Related pubchem assays: 1301 (Confirmation screen.), 1048 (Primary screen.)]. It is filed as functional.
Chain of Peroxisome proliferator-activated receptor gamma/Nuclear receptor coactivator 3 (P37231 whole entry): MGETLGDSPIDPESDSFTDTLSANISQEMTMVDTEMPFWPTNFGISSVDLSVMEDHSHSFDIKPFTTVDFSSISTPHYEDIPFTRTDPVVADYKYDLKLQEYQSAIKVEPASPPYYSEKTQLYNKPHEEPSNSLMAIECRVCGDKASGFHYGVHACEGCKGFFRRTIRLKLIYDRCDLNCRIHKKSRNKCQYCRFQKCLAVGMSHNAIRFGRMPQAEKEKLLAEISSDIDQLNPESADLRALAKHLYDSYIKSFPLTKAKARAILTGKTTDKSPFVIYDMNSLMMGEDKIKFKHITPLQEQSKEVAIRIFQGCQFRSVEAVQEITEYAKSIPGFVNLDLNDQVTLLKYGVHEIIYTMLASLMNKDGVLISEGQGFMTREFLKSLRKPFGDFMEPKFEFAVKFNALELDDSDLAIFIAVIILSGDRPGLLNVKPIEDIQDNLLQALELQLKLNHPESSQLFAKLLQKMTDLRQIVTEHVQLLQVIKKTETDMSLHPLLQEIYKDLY
Chain of Peroxisome proliferator-activated receptor gamma/Nuclear receptor coactivator 3 (Q9Y6Q9 whole entry, further chain): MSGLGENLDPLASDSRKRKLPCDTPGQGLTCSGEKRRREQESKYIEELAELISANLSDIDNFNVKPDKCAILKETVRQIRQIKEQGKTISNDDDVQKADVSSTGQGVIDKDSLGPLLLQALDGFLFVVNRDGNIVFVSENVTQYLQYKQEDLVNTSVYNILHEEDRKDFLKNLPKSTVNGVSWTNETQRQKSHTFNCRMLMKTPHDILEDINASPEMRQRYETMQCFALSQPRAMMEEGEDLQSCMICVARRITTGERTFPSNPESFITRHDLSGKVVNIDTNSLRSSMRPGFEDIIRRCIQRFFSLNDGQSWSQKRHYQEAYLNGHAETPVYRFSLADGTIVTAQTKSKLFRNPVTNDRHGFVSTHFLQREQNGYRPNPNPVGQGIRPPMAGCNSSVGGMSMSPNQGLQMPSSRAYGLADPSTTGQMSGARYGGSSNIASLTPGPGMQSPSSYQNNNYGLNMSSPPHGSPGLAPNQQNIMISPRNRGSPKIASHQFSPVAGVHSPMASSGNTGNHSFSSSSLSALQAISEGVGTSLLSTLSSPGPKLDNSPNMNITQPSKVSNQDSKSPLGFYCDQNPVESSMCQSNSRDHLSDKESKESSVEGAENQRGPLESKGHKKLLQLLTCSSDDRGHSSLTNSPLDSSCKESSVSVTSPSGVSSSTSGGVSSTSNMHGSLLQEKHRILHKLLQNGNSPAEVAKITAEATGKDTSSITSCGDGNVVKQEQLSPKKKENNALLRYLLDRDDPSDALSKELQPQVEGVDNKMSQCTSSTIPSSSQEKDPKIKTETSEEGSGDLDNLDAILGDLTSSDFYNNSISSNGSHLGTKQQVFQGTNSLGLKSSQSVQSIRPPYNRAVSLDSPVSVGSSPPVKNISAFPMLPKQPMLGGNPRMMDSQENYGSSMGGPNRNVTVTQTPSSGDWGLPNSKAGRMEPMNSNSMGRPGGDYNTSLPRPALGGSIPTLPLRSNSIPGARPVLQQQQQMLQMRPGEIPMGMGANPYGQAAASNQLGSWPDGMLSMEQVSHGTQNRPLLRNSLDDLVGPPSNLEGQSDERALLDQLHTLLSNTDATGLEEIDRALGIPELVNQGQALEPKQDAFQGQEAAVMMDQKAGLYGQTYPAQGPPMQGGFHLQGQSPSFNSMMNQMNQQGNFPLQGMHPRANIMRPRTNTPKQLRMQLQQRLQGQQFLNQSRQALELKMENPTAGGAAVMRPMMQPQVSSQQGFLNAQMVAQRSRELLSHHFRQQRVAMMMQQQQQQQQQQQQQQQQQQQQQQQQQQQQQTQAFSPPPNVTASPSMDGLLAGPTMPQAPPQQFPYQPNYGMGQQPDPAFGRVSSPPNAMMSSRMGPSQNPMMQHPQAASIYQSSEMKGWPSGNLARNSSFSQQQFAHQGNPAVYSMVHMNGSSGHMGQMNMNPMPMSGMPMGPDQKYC

In assay [14] the target is Peroxisome proliferator-activated receptor gamma/Nuclear receptor coactivator 2 (Homo sapiens, UniProt P37231). Nature of the assay: TR-FRET dose response biochemical High Throughput Screening assay for agonists of the steroid receptor coactivator 2 (SRC-2) recruitment by the peroxisome proliferator-activated receptor gamma (PPAR gamma): non-selective agonists. [Related pubchem assays: 1297, 1032 ]. It is filed as functional.

A short description of assay [15]: alpha-synuclein stem-loop translation blockers – luminescence, H4 neuroglioblastoma cells, dose confirmation, confirmation (AID 2454).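 Note: H4 neuroglioblastoma cells carrying an alpha-synuclein 5'UTR luciferase reporter; potency for inhibition of the luciferase signal.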 It is filed as functional, cell-based.
The nature of assay [16]: A549 cell cytotoxicity, dose response, cytotoxicity control, plate reader, cherry-pick, antagonist series (AID 743412). The format is functional, cell-based.
Assay [17] in a line: blockers of bursicon-stimulated LGR2 cAMP reporter – cell-based, HEK293, CRE-luciferase reporter, cherry pick, set 2, dose response (AID 743343).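 Note: transfected cells were stimulated with diluted bursicon conditioned medium after compound addition.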 The format is functional.
The nature of assay [18]: blockade of melanocortin 4 receptor signaling – cell-based, plate reader, cherry pick, counter-screen for LGR2 antagonist project, dose response (AID 743444).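 Note: transfected HEK 293 cells stimulated with alpha-MSH peptide; potency of inhibitors of the alpha-MSH evoked signal.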 It is filed as functional.
Assay [19] has as its system BJ. Nature of the assay: BJ-TERT fibroblast viability loss – cell-based, RAS-independent, luminescence, dose response (AID 1933). It is filed as functional. Particulars: Homo sapiens.
Assay [20] is described as follows: alpha-synuclein stem-loop luciferase translation blockers – H4 neuroglioma cells, luminescence, confirmation (AID 1988). It is filed as functional, cell-based.
Assay [21] relates to BJ. The assay is described as follows: cells. It is filed as functional, cell-based. As to conditions: Homo sapiens.
Assay [22] has as its system BJ. Nature of the assay: BJ-TERT-LT-ST fibroblast viability loss – cell-based, RAS-independent, luminescence, dose response (AID 1935).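 Note: BJ fibroblasts immortalized with TERT plus LT and ST oncogenes.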 It is filed as functional. Particulars: Homo sapiens.
A short description of assay [23]: DRD fibroblast viability loss – cell-based, non-viral oncogenic, luminescence, dose response (AID 1934). It is filed as functional. Particulars: Homo sapiens.
The subject of assay [24] is BJ. Nature of the assay: growth inhibition of engineered Ras-driven BJ cells – cell-based, alamar blue fluorescence, cherrypicked samples, dose response (AID 2631).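 Note: confirmatory dose-response assay in RAS-dependent BJ fibroblasts engineered with TERT, LT and ST, with cytotoxicity read by fluorescence.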 The format is functional. Particulars: Homo sapiens.

Structures are written as SMILES. The source made the active and inactive calls. Cut-off read from the data, not from the text of the source, for most assays here: actives have a measured EC50 and inactives only a lower limit.

Chain of Peroxisome proliferator-activated receptor gamma/Nuclear receptor coactivator 1 (P37231 whole entry): as the sequence (P37231 whole entry) above
Chain of Peroxisome proliferator-activated receptor gamma/Nuclear receptor coactivator 1 (Q15788 whole entry, further chain): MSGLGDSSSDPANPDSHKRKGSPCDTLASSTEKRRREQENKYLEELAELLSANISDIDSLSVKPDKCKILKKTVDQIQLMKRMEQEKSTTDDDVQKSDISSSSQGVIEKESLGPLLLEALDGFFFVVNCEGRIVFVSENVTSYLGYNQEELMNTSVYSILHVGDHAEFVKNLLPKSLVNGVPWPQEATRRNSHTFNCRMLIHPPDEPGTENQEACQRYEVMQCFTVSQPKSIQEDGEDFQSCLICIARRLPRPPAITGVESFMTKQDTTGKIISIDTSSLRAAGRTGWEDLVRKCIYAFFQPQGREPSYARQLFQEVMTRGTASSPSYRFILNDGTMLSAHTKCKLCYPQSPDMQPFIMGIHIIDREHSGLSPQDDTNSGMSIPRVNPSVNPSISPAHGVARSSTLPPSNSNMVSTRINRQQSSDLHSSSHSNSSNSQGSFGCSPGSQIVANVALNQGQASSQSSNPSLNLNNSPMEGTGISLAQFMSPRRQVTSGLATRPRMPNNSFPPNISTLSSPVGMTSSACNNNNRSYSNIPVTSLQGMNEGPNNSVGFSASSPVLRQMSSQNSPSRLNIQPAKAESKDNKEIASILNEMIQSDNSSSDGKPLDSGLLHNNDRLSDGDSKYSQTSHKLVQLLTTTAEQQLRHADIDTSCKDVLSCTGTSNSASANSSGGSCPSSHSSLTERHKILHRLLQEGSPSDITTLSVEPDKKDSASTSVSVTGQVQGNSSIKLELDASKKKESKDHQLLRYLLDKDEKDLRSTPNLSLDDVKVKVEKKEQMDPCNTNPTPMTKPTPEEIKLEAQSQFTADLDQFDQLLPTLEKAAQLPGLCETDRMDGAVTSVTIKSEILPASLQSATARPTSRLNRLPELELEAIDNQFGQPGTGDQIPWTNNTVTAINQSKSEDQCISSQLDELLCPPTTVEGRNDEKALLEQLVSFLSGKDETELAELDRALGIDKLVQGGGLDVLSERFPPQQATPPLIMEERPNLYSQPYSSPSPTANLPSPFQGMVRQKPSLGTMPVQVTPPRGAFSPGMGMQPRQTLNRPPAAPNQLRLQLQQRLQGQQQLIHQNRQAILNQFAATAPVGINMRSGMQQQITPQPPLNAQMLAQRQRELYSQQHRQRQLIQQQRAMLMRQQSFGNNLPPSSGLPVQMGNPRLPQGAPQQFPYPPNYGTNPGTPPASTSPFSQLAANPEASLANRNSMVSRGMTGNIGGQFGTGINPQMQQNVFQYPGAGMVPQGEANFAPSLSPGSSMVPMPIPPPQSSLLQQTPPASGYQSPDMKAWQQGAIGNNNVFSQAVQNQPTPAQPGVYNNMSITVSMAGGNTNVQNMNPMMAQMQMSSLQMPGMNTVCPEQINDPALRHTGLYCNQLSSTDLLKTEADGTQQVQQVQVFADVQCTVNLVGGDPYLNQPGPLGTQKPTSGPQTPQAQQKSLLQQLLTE

Turning to `Cc1nn(-c2ccccc2)c(Cl)c1C(=O)Nc1nnc(C2CCCCC2)s1`, in assay [1], the IC50 was > 50 µM (active).

Take `O=C(NNC(=O)C1CCCN(S(=O)(=O)c2ccc3ccccc3c2)C1)C1CC1` (centres undefined): the EC50 in assay [2] is 23.2 µM (not active); in assay [3], > 55.7 µM (not active).

For the compound `Cc1ccc(-c2nnn(CC(=O)NC3CCN(Cc4ccccc4)CC3)n2)cc1`, the results for the EC50 in assay [4] and in assay [5] were 0.141 µM (active) and > 60 µM (not active), respectively. Besides, in assay [6], the AC50 is 276 µM (active).

Take `O=C1C=C2C=C[C@@H]3CC2(O1)[C@H]1CCCCN31`: the CC50 in [7] was 39.4 µM (active).

`O=C(c1ccccc1)N1CCSc2sccc2C1=O`: the EC50 in [8] is 7.87 µM (active); in assay [9] it was 0.896 µM (active); in assay [10], 18.9 µM (inactive); in assay [11], 7.25 µM (active); in assay [12], < 0.1 µM (active); in [13] it was > 79.4 µM (not active). Further, the results for the EC50 in assay [14] and in assay [15] were 15.8 µM (not active) and 1.08 µM (active), respectively. Also, the AC50 in assay [16] was > 52 µM (inactive); in [17] it was 4 µM (active); in [18], 3.77 µM (active).

As to `O=C(N/N=C/c1cccs1)c1cc(-c2ccncc2)nc2ccccc12`, the EC50 in assay [8] was 4.61 µM (active); in assay [9], > 12 µM (inconclusive); in assay [19], 0.602 µM (active); in [11], 2.19 µM (active); in assay [12], 0.294 µM (active); in assay [20], < 0.1 µM (active). Further, the EC50 in [21] is 0.712 µM (active); in assay [22] it was 0.671 µM (active); in assay [23] it was 0.463 µM (active); in [15], > 12 µM (inconclusive); in assay [24], 0.24 µM (active).
